This experiment deals with Blattella germanica. The experiment can be described thus: Test Example 3: filter paper with sucrose bait, Blattella germanica male imagoes. In kind it is in vivo. Particulars: 500 ppm, 0.7 ml on filter paper; 2 male imagoes; after 6 days. As for the experimental part: Preparations of the present compounds (2), (3), (5) and (6) obtained according to Formulation Example 11 were diluted so that the active ingredient concentration was 500 ppm to obtain test solutions.
A filter paper having a diameter of 5.5 cm was spread on the bottom of a polyethylene cup having a diameter of 5.5 cm and 0.7 ml of the test solution was added dropwise onto the filter paper. As a bait 30 mg of sucrose was uniformly placed on the filter paper. Into the polyethylene cup, 2 male imagoes of Blattella germanica were released and the cup was sealed with a lid. After 6 days, the number of surviving Blattella germanica was examined and the death rate of the pest was calculated.

These results are taken from US8158829B2, “Organic sulfur compound and its use for controlling harmful arthropod” (Sumitomo Chemical Company, Limited, priority 2007, dated 2012).

Turning to `COC(=O)C(Cl)(CCC(F)(Cl)C(F)(F)Cl)S(=O)(=O)CCC(F)(F)F` (stereo not shown) [present compound (2), methyl 2,5,6-trichloro-5,6,6-trifluoro-2-(3,3,3-trifluoropropylsulfonyl)hexanoate], the “death rate of the pest” value is on record as 100%.

For `NC(=O)C(Cl)(CCC(F)(Cl)C(F)(F)Cl)S(=O)(=O)CCC(F)(F)F` (stereo not shown) [present compound (3), 2,5,6-trichloro-5,6,6-trifluoro-2-(3,3,3-trifluoropropylsulfonyl)hexanamide], the “death rate of the pest” value was found to be 100%.

Turning to `COC(=O)C(Cl)(CCC(F)(F)C(F)(F)Br)S(=O)(=O)CCC(F)(F)F` (stereo not shown) [present compound (5), methyl 6-bromo-2-chloro-5,5,6,6-tetrafluoro-2-(3,3,3-trifluoropropylsulfonyl)hexanoate], the “death rate of the pest” value is reported as 100%.

For the compound `NC(=O)C(Cl)(CCC(F)(F)C(F)(F)Br)S(=O)(=O)CCC(F)(F)F` (stereo not shown) [present compound (6), 6-bromo-2-chloro-5,5,6,6-tetrafluoro-2-(3,3,3-trifluoropropylsulfonyl)hexanamide], the “death rate of the pest” value is reported as 100%.
